This passage reports EC50, IC50 and outcome results from PubChem BioAssay AID179 (DTP/NCI, 2004).

The experiment deals with CEM cells HIV-1 protection, formazan growth assay. As to the kind of experiment: NCI AIDS Antiviral Assay. The note with it: for IC50: measured here: growth of uninfected CEM cells. A digest of the protocol: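 Steps: treat uninfected and HIV-1-infected human CEM cells at five drug levels; quantify growth by soluble formazan; retest any compound reaching 50% protection; classify actives from the retest.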

The source made the active and inactive calls.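 How the source made its calls: active means compounds giving half or more protection of infected cells from virus-caused growth loss, again on retest; inactive means the rest.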

With `COc1c2c(c3c(c1C1OC(C)[C@@H](C)O1)CC(C)(C)O3)C(=O)c1ccccc1C2=O` (stereo partly drawn), the EC50 is > 63.1 µM and the IC50 is > 63.1 µM.
In the case of `C/C(=C\c1ccccc1)C(=O)c1c(C)cc(C)cc1C`, the EC50 is > 38 µM and the IC50 is > 38 µM.
Consider `O=C1c2cccc3cc([N+](=O)[O-])cc(c23)C(=O)N1c1ccc(OCCN2CCCC2)cc1`, for which the EC50 was > 200 µM and the IC50 turned out to be 5.62 µM.
For `Cc1cc(N=C2C=C(Nc3cc(C)on3)C(=O)c3ccccc32)no1`, the EC50 is > 11.2 µM and the IC50 was > 11.2 µM.
In the case of `CCOC(=O)c1c(SC(=O)c2ccc(Cl)cc2)n(-c2ccccc2)c(=S)n(-c2ccccc2)c1=O`, the EC50 was > 200 µM and the IC50 came to 141 µM.
On to `O=C(O)/C=C\CCCCCCCCC(=O)O`, for which the EC50 was > 794 µM and the IC50 is > 794 µM.
Regarding `CCOC(=O)c1c(C)c2c(n1C)CCc1cn[nH]c1-2`, the EC50 was > 191 µM and the IC50 amounted to 126 µM.
`C=CCC(C)C12CCNC(Cc3ccc(O)cc31)C2C` (stereo not drawn): the EC50 is > 200 µM and the IC50 was > 200 µM.
For `Nc1nc(=S)[nH]c(N)c1N=O`, the EC50 is 85.1 µM and the IC50 worked out at 120 µM.
The like results for `O=S(=O)(Cc1ccccc1)C(I)c1ccccc1` (stereo not drawn) were, in that order, > 69.2 µM and 13.8 µM.
As to `N#CCCn1c(CCC(=O)Nc2ccc(Cl)cc2Cl)n[nH]c1=S`, the EC50 was 66.1 µM and the IC50 is 97.7 µM.
On the same counts, the results for `COc1cc(OC)c(C2c3cc4c(cc3OC(N3CCOCC3)C2C)OCO4)c(OC)c1` (stereo not drawn) are > 200 µM and 11.2 µM.
As for `CC(=O)OC1C[C@](C)(O)/C=C/CC(C)/C=C/[C@@]2(C)CCC(C(C)(C)O)C12` (stereo partly drawn), the result was inactive.
As for `Cn1ccc2c3c(ccc21)C(N1CCOCC1)=CS(=O)(=O)O3`, the outcome was inactive.
As for `CCN(CC)CCn1ccc(=O)c2cc3c(=O)ccn(CCN(CC)CC)c3c(C)c21`, the EC50 was > 17 µM and the IC50 came to 0.676 µM.
With `CC1(C)OC(CCO)CN1C(=O)OCc1ccccc1` (stereo not drawn), the 50% effective concentration (EC50) stood at 195 µM and the IC50 is > 200 µM.
The like results for `CC[N+]1(C)CCC(O)(c2ccc(OC)cc2)C(C(=O)c2ccc(OC)cc2)C1` (stereo not drawn) were, in that order, > 200 µM and 10.2 µM.
As for `Cc1c(Cc2ccccc2)n(COCCCO)c(=O)[nH]c1=O`, the EC50 was 138 µM and the IC50 was > 200 µM.
Turning to `N#CC1(C#N)NC(c2ccsc2)C(C#N)(C#N)NC1c1ccsc1` (stereo not drawn), the EC50 is > 200 µM and the IC50 stood at 115 µM.
As to `O=C(/C=C/c1cccs1)c1ccc(Cl)s1`, the outcome was inactive.
With `CCOc1ccc(/C=C(\Cl)c2ccc(OC)cc2)cc1`, the EC50 was > 200 µM and the IC50 is > 200 µM.
Take `COc1cc(-c2cc(=O)c3c(C)cc(O)cc3o2)cc(OC)c1OC`: the EC50 was 112 µM and the IC50 is > 200 µM.
On to `O=C(CC(=O)C1CCOC1=O)C(=O)Nc1ccc(Cl)cc1Cl` (stereo not drawn), for which the outcome was inactive.
For `O=C(CC(=O)c1ccc(Cl)cc1)Cc1ccc2ccccc2n1`, the EC50 was > 11.2 µM and the IC50 is > 11.2 µM.
Turning to `C#CCN(CC#C)C(=O)C(=O)c1c[nH]c2ccc(OC)cc12`, the EC50 was > 200 µM and the IC50 is 40.7 µM.
For `CSc1c(C#N)c(=O)n(N)c2n[nH]c(C)c12`, the EC50 is > 200 µM and the IC50 is > 200 µM.
Regarding `CC(C(O)c1ccccc1)C(O)(C(F)(F)F)C(F)(F)F` (stereo not drawn), the EC50 was > 200 µM and the IC50 was 95.5 µM.
For `O=C(O)c1ccc(-c2ccc(C(=C(F)F)C(F)(F)F)cc2)cc1`, the result was inactive.
`CC1OC(OC2C(CO)OC(O[C@H]3CC[C@@]4(C)C(=CC[C@H]5[C@@H]6C[C@@H]7O[C@](O)(CC[C@H](C)COC8OC(CO)C(O)C(O)C8O)[C@@H](C)[C@@H]7[C@@]6(C)CC[C@@H]54)C3)C(OC3OC(C)C(O)C(O)C3O)C2O)C(O)C(O)C1O` (stereo partly drawn): the EC50 is > 200 µM and the IC50 came out at 1.48 µM.
`NC(N)=NN=C1CCCCC1`: the EC50 was > 200 µM and the IC50 was > 200 µM.
For `c1ccc(SC(Sc2ccccc2)=C2CCC2)cc1`, the outcome was inactive.
Same read-out and setting: in the case of `Cc1ccc(Nc2cccc3c2C(=O)c2cccc(Nc4ccc(C)cc4S(=O)(=O)O)c2C3=O)c(S(=O)(=O)O)c1` it was “active”.
As for `O=C(Nc1ccc(/C=C/c2ccc(NC(=O)c3ccc4cccnc4c3O)cc2S(=O)(=O)O)c(S(=O)(=O)O)c1)c1ccc2cccnc2c1O`, the EC50 was > 100 µM and the IC50 is 60.3 µM.
As for `O=C1Nc2ccc(Br)cc2/C1=c1/sc2nc3ccccc3n2c1=O`, the EC50 is > 50.1 µM and the IC50 came out at 42.7 µM.
With `N#COc1ccc(Oc2ccc(OC#N)cc2)cc1`, the EC50 was > 141 µM and the IC50 is 45.7 µM.
As to `CCCC(C)N(CC(=O)Nc1ccc(S(N)(=O)=O)cc1)C(C)=O` (stereo not drawn), the EC50 was > 200 µM and the IC50 was > 200 µM.
As to `COCC(=O)[C@]1(O)Cc2c(O)c3c(c(O)c2[C@@H](OC2CC(N)C(O)C(C)O2)C1)C(=O)c1c(OC)cccc1C3=O` (stereo partly drawn), the EC50 is > 0.2 µM and the IC50 was found to be 0.0631 µM.
As for `NCCCNCCCCNCCCNCc1c2ccccc2c(CNCCCNCCCCNCCCN)c2ccccc12`, the EC50 is > 1820 µM and the IC50 came out at 3.8 µM.
On the same counts, the results for `CCC(=S)N(C)O` are > 20.9 µM and 0.174 µM.
With `Cc1ccc(NC(=O)CC(=O)n2nc(-c3ccccc3)c(N=Nc3ccc(Cl)cc3)c2-c2ccccc2)cc1`, the EC50 was > 9.77 µM and the IC50 was > 9.77 µM.
Take `COc1cc(=O)cc2n(c1=O)CCC2`: the EC50 is > 447 µM and the IC50 is > 447 µM.
As for `COC(=O)CC(=O)C=P(c1ccccc1)(c1ccccc1)c1ccccc1`, the EC50 is > 347 µM and the IC50 was determined as 20.4 µM.
On to `CCCCCCCCSC(=O)n1cc(F)c(=O)[nH]c1=O`, for which the EC50 was > 61.7 µM and the IC50 was > 61.7 µM.
Turning to `N#CC1(C#N)C=CC(=C2OCC3CCCN23)C=C1` (stereo not drawn), the outcome was inactive.
With `C=CCn1c(N)c(C#N)c(C#N)c1CCC`, the EC50 was > 200 µM and the IC50 was > 200 µM.
On to `O=c1[nH]c(Nc2cccc(Br)c2)nc2nc[nH]c12`, for which the EC50 is > 200 µM and the IC50 is > 100 µM.
The like results for `COc1ccc(/C=C/C(=O)c2ccccc2)cc1OC` were, in that order, > 97.7 µM and 18.2 µM.
Regarding `CCCCCCCCCCCCCCCCCCn1[se]c2ccccc2c1=O`, the EC50 was > 3.24 µM and the half-inhibitory concentration (IC50) is > 3.24 µM.
With `COC(=O)[C@H](Cc1ccccc1)NC(=O)OCC1OC(n2cc(C)c(=O)[nH]c2=O)CC1N=[N+]=[N-]` (stereo partly drawn), the EC50 was > 200 µM and the IC50 is > 200 µM.
On to `COc1cc(C2C(=O)C(Cl)N2Nc2nc(C)cc(=O)[nH]2)cc(OC)c1OC` (stereo not drawn), for which the EC50 was > 66.1 µM and the IC50 was found to be 9.77 µM.
Regarding `O=C(O)CCNC(=O)OCc1ccccc1`, the EC50 was > 200 µM and the IC50 is > 200 µM.
In the case of `O=C1c2ccccc2C(=O)c2c(O)c(NCCCNCCO)cc(O)c21`, the outcome was inactive.
For the compound `CC(NC1=NCCO1)c1ccco1` (stereo not drawn), the EC50 was > 200 µM and the IC50 is > 200 µM.
For `CC(C)(C)c1cc(-c2cc(C(C)(C)C)[nH]n2)n[nH]1`, the EC50 is > 200 µM and the IC50 was > 200 µM.
Turning to `COC(=O)C1CCC(=O)N1C(c1ccccc1)c1ccc(OC)c(OC)c1` (stereo not drawn), the EC50 is > 200 µM and the IC50 is > 200 µM.
Turning to `COc1ccccc1N=NC1=C2Nc3ccccc3N=C1N(c1ccccc1OC)C(=S)N2c1ccccc1C`, the outcome was inactive.
The same measure, in the same setting: in the case of `CN(/N=C\c1ccnc2ccccc12)c1ccccc1` it was “inactive”; in that of `CN(/N=C\c1ccnc2ccccc12)c1ccc([N+](=O)[O-])cc1`, “inactive”.
For the compound `Cc1ccc(S(=O)(=O)Nn2c3c(cc(C#N)c2=O)CCCCC3)cc1`, the EC50 was > 200 µM and the IC50 is > 200 µM.
For the compound `COc1cc(/C=C2\CC/C(=C\c3ccc(O)c(OC)c3)C2=O)ccc1O`, the EC50 was > 200 µM and the IC50 stood at 1.48 µM.
In the case of `CCC(=O)NC(Nc1ccc(O)cc1)(C(F)(F)F)C(F)(F)F`, the EC50 was > 200 µM and the IC50 is 46.8 µM.
On the same counts, the results for `O=Nc1c(N=O)c(N=O)c(N=O)c(N=O)c1N=O` are > 20 µM and 2.34 µM.
On to `COC(OC)c1cccc2c1C(=O)CCC1(O)c3ccccc3C1C2` (stereo not drawn), for which the EC50 is > 155 µM and the IC50 was 138 µM.
Turning to `C=C1[C@H]2C[C@H]3[C@@H]4N5C[C@]6(C)CCCC47C6[C@H]5CC3([C@@H]1O)[C@H]7[C@H]2O`, the outcome was inactive.
As for `C=C(C(=O)O)C1CCC(CC/C=C(\C)CC/C=C(\C)CCC=C(C)C)CO1` (stereo not drawn), the EC50 was > 200 µM and the IC50 was determined as 6.17 µM.
For `Cc1ccc(/C=C2\Cc3cccc(C)c3C2=O)c(C(=O)O)c1`, the EC50 is > 200 µM and the IC50 is 105 µM.
For `COc1cccc(N2C(=O)C3C4C=C5c6ccccc6N(c6ccccc6)C5(C3C2=O)[C@H]2C(=O)N(c3cccc(OC)c3)C(=O)[C@@H]42)c1` (stereo partly drawn), the EC50 is > 4.37 µM and the IC50 is > 4.37 µM.
Consider `O=C(Cn1ccnc1[N+](=O)[O-])NCCO`, for which the result was inactive.
As to `C[n+]1c(-c2ccc(/C=N/NC(=O)c3ccc(C(=O)N/N=C/c4ccc(-c5cn6ccccc6[n+]5C)cc4)c(O)c3O)cc2)cn2ccccc21`, the EC50 was 8.32 µM and the IC50 was determined as 8.71 µM.
The like results for `O=C(c1ccncc1)n1nc(-c2ccccc2)c(N=Nc2ccc([N+](=O)[O-])cc2)c1-c1ccccc1` were, in that order, > 39.8 µM and > 39.8 µM.
Take `COc1ccc2cc1Oc1ccc(cc1)CC1c3c(cc(OC)c4c3Oc3cc5c(cc3O4)CCN[C@@H]5C2)CCN1C` (stereo partly drawn): the outcome was inactive.
As to `COC1=C(C)C(=O)c2nc(COC(C)=O)ccc2C1=O`, the outcome was inactive.

By EC50 is commonly meant the concentration that produces a half-maximal response. Broadly, the IC50 is the point on the concentration scale where inhibition reaches its midpoint.
